pIC50: −log10 of the molar value. Where a name gives a salt, the structure may show the parent alone.
How the values were obtained:
MV-4-11 cells = assay: In vitro cell proliferation assay, MV-4-11 (CellTiter-Glo); type: cell-based; conditions: MV4-11; human acute leukemia cells bearing FLT3-ITD mutation, 72 h
Method: (§1) The human acute leukemia MOLM-13 AND MV-4-11 cells, bearing a FLT3-ITD mutation, were seeded (5000 cells/well) in white 384 well-plates in complete medium (RPMI 1640 plus 10% Fetal bovine serum) and treated with compounds dissolved in 0.1% DMSO, 24 h after seeding. The cells were incubated at 37° C. and 5% CO2 and after 72 h the plates were processed using CellTiter-Glo assay (Promega) following the manufacturer's instruction.
(§2) CellTiter-Glo is a homogenous method based on the quantification of the ATP present, an indicator of metabolitically active cells. ATP was quantified using a system based on luciferase and D-luciferin resultant into light generation. The luminescent signal was proportional to the number of cells present in culture. Briefly, 25 microL/well reagent solution were added to each well and, after 5 minutes shaking, microplates were read by Envision (PerkinElmer) luminometer. Inhibitory activity was evaluated comparing treated versus control data using Symyx Assay Explorer (Symyx Technologies Inc.) program. IC50 was calculated using sigmoidal interpolation curve.

MOLM-13 cells = assay: In vitro cell proliferation assay, MOLM-13 (CellTiter-Glo); type: cell-based; conditions: human acute leukemia cells bearing FLT3-ITD mutation, 72 h
Method: as §1, §2

[1] = molecular target: KIT kinase (GST-KIT cytoplasmic domain) (Homo sapiens (Human), UniProt P10721); assay: Biochemical assay for inhibitors of KIT kinase activity; conditions: pre activated enzyme 4 nM, 4.4 microM ATP, 60 minutes at r.t.
Method: The GST-KIT cytoplasmic domain has been expressed in Sf21 cells infected for 66 hrs at 27° C. The recombinant protein has been purified by affinity on GSH-sepharose and eluted with glutathione. […] At the end of the phosphorylation reaction, the not reacted ATP, cold and radioactive, was captured by an excess of dowex ion exchange resin that eventually settled by gravity to the bottom of the reaction plate. […] 500 g of wet resin (SIGMA, custom prepared resin DOWEX 1×8 200-400 mesh, 2.5 Kg) were weighed out and diluted to 2 L in 150 mM sodium formate, pH 3.00. The resin was allowed to settle down overnight and then the supernatant was discarded. After three washes as above over a couple of days, the resin was allowed to settle and two volumes (with respect to the resin volume) were added of 150 mM sodium formate buffer. […] NO: 2). The peptide was purchased from American Peptide Company (Sunnyvale, Calif.). […] An automated station for serial dilutions (Biomek FX, Beckman) was used for producing 1:3 dilutions in 100% DMSO, from line A1 to A10, and for all the compounds in the column. […] The following dispensation into the plates plus 3 cycles of mixing, done by the robot itself, started the kinase reaction. At this point, the correct concentrations were restored for all the reagents. […]

KIT kinase (GST-KIT cytoplasmic domain), sequence (P10721 544-976): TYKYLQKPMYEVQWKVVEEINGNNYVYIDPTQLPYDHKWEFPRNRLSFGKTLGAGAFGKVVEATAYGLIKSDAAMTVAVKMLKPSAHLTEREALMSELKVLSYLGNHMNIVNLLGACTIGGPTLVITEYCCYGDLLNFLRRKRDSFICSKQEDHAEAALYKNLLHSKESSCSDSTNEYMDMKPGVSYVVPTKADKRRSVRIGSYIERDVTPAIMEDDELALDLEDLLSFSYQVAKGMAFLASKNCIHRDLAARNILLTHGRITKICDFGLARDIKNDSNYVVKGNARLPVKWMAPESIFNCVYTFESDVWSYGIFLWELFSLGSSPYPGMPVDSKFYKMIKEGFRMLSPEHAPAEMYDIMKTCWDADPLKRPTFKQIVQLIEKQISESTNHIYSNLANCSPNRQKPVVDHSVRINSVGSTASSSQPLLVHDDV

`CN1CCN(c2ccc(C(=O)Nc3n[nH]c4cc(OCc5ccccc5)ccc34)cc2)CC1` [Cpd. 1, N-(6-Benzyloxy-1H-indazol-3-yl)-4-(4-methyl-piperazin-1-yl)-benzamide] showed a pIC50 (MV-4-11 cells) of 6.17 and a pIC50 (MOLM-13 cells) of 6.10.

Work on `CN1CCN(c2ccc(C(=O)Nc3n[nH]c4cc(Oc5ccccc5)ccc34)cc2)CC1` [Cpd. 2, 4-(4-Methyl-piperazin-1-yl)-N-(6-phenoxy-1H-indazol-3-yl)-benzamide] yielded a pIC50 (MV-4-11 cells) of 5.83 and a pIC50 (MOLM-13 cells) of 5.94.

`CN1CCN(c2ccc(C(=O)Nc3n[nH]c4cc(Oc5cccc(F)c5)ccc34)cc2)CC1` [Cpd. 3, N-[6-(3-Fluoro-phenoxy)-1H-indazol-3-yl]-4-(4-methyl-piperazin-1-yl)-benzamide] showed a pIC50 (MV-4-11 cells) of 6.01 and a pIC50 (MOLM-13 cells) of 6.00.

With `CN1CCN(c2ccc(C(=O)Nc3n[nH]c4cc(Oc5ccc(OCc6ccccc6)cc5)ccc34)cc2)CC1` [Cpd. 4, N-[6-(4-Benzyloxy-phenoxy)-1H-indazol-3-yl]-4-(4-methyl-piperazin-1-yl)-benzamide] the pIC50 (MV-4-11 cells) was over 7.30 and the pIC50 (MOLM-13 cells) was 7.04.

`CN1CCN(c2ccc(C(=O)Nc3n[nH]c4cc(OCc5cccc(Oc6ccccc6)c5)ccc34)cc2)CC1` [Cpd. 5, 4-(4-Methyl-piperazin-1-yl)-N-[6-(3-phenoxy-benzyloxy)-1H-indazol-3-yl]-benzamide] was tested, and the pIC50 (MV-4-11 cells) was 6.29 and the pIC50 (MOLM-13 cells) was 6.25.

`CN1CCN(c2ccc(C(=O)Nc3n[nH]c4cc(OC5CCN(Cc6ccccc6)CC5)ccc34)cc2)CC1` [Cpd. 6, N-[6-(1-Benzyl-piperidin-4-yloxy)-1H-indazol-3-yl]-4-(4-methyl-piperazin-1-yl)-benzamide] gave a pIC50 (MV-4-11 cells) of 6.79 and a pIC50 (MOLM-13 cells) of 6.17.

`CN1CCN(c2ccc(C(=O)Nc3n[nH]c4cc(OCC#Cc5ccccc5)ccc34)cc2)CC1` [Cpd. 7, 4-(4-Methyl-piperazin-1-yl)-N-[6-(3-phenyl-prop-2-ynyloxy)-1H-indazol-3-yl]-benzamide] gave a pIC50 (MV-4-11 cells) of 6.96 and a pIC50 (MOLM-13 cells) of 6.62.

Work on `CN1CCN(c2ccc(C(=O)Nc3n[nH]c4cc(Oc5ccc(Oc6ccccc6)cc5)ccc34)cc2)CC1` [Cpd. 8, 4-(4-Methyl-piperazin-1-yl)-N-[6-(4-phenoxy-phenoxy)-1H-indazol-3-yl]-benzamide] yielded a pIC50 (MV-4-11 cells) of 5.56 and a pIC50 (MOLM-13 cells) of 5.70.

Work on `CN1CCN(c2ccc(C(=O)Nc3n[nH]c4cc(Oc5cccc(OCc6ccccc6)c5)ccc34)cc2)CC1` [Cpd. 9, N-[6-(3-Benzyloxy-phenoxy)-1H-indazol-3-yl]-4-(4-methyl-piperazin-1-yl)-benzamide] yielded a pIC50 (MV-4-11 cells) of 7.00 and a pIC50 (MOLM-13 cells) of 6.61.

In the case of `CN1CCN(c2ccc(C(=O)Nc3n[nH]c4cc(OCCOc5ccccc5)ccc34)cc2)CC1` [Cpd. 10, 4-(4-Methyl-piperazin-1-yl)-N-[6-(2-phenoxy-ethoxy)-1H-indazol-3-yl]-benzamide], the pIC50 (MV-4-11 cells) was 6.93 and the pIC50 (MOLM-13 cells) was 6.86.

`CN1CCN(c2ccc(C(=O)Nc3n[nH]c4cc(OCCOCc5ccccc5)ccc34)cc2)CC1` [Cpd. 11, N-[6-(2-Benzyloxy-ethoxy)-1H-indazol-3-yl]-4-(4-methyl-piperazin-1-yl)-benzamide] was tested, and the pIC50 (MV-4-11 cells) was over 7.30 and the pIC50 (MOLM-13 cells) was over 7.30.

Compound `C[N+]1([O-])CCN(c2ccc(C(=O)Nc3n[nH]c4cc(OCCOCc5ccccc5)ccc34)cc2)CC1` [Cpd. 14, N-[6-(2-Benzyloxy-ethoxy)-1H-indazol-3-yl]-4-(4-methyl-4-oxy-piperazin-1-yl)-benzamide] has a pIC50 (MV-4-11 cells) of over 7.30 and a pIC50 (MOLM-13 cells) of over 7.30.

`CN(C)C1CCN(c2ccc(C(=O)Nc3n[nH]c4cc(OCCOCc5ccccc5)ccc34)cc2)CC1` [Cpd. 15, N-[6-(2-Benzyloxy-ethoxy)-1H-indazol-3-yl]-4-(4-dimethylamino-piperidin-1-yl)-benzamide] was tested, and the pIC50 (MV-4-11 cells) was over 7.30 and the pIC50 (MOLM-13 cells) was over 7.30.

Compound `CN(C)CCN(C)c1ccc(C(=O)Nc2n[nH]c3cc(OCCOCc4ccccc4)ccc23)cc1` [Cpd. 16, N-[6-(2-Benzyloxy-ethoxy)-1H-indazol-3-yl]-4-[(2-dimethylamino-ethyl)-methyl-amino]-benzamide] has a pIC50 (MV-4-11 cells) of over 7.30 and a pIC50 (MOLM-13 cells) of over 7.30.

`CN(C)CCCN(C)c1ccc(C(=O)Nc2n[nH]c3cc(OCCOCc4ccccc4)ccc23)cc1` [Cpd. 17, N-[6-(2-Benzyloxy-ethoxy)-1H-indazol-3-yl]-4-[(3-dimethylamino-propyl)-methyl-amino]-benzamide] was tested, and the pIC50 (MV-4-11 cells) was over 7.30 and the pIC50 (MOLM-13 cells) was 7.06.

Compound `CN1CCC(Nc2ccc(C(=O)Nc3n[nH]c4cc(OCCOCc5ccccc5)ccc34)cc2)CC1` [Cpd. 19, N-[6-(2-Benzyloxy-ethoxy)-1H-indazol-3-yl]-4-(1-methyl-piperidin-4-ylamino)-benzamide] has a pIC50 (MV-4-11 cells) of over 7.30 and a pIC50 (MOLM-13 cells) of over 7.30.

In the case of `CN(C)Cc1ccc(C(=O)Nc2n[nH]c3cc(OCCOCc4ccccc4)ccc23)cc1` [Cpd. 21, N-[6-(2-Benzyloxy-ethoxy)-1H-indazol-3-yl]-4-dimethylaminomethyl-benzamide], the pIC50 (MOLM-13 cells) was 7.17.

Compound `CN1CCC(Oc2ccc(C(=O)Nc3n[nH]c4cc(OCCOCc5ccccc5)ccc34)cc2)CC1` [Cpd. 22, N-[6-(2-Benzyloxy-ethoxy)-1H-indazol-3-yl]-4-(1-methyl-piperidin-4-yloxy)-benzamide] has a pIC50 (MV-4-11 cells) of over 7.30 and a pIC50 (MOLM-13 cells) of 7.19.

Compound `O=C(Nc1n[nH]c2cc(OCCOCc3ccccc3)ccc12)c1ccc(NCCN2CCOCC2)cc1` [Cpd. 25, N-[6-(2-Benzyloxy-ethoxy)-1H-indazol-3-yl]-4-(2-morpholin-4-yl-ethylamino)-benzamide hydrochloride] has a pIC50 (MV-4-11 cells) of over 7.30 and a pIC50 (MOLM-13 cells) of over 7.30.

Compound `CN1CCC(CNc2ccc(C(=O)Nc3n[nH]c4cc(OCCOCc5ccccc5)ccc34)cc2)CC1` [Cpd. 27, N-[6-(2-Benzyloxy-ethoxy)-1H-indazol-3-yl]-4-[(1-methyl-piperidin-4-ylmethyl)-amino]-benzamide] has a pIC50 (MV-4-11 cells) of over 7.30 and a pIC50 (MOLM-13 cells) of over 7.30.

`O=C(Nc1n[nH]c2cc(OCCOCc3ccccc3)ccc12)c1ccc(N2CC(N3CCCC3)C2)cc1` [Cpd. 28, N-[6-(2-Benzyloxy-ethoxy)-1H-indazol-3-yl]-4-(3-pyrrolidin-1-yl-azetidin-1-yl)-benzamide] showed a pIC50 (MV-4-11 cells) of over 7.30 and a pIC50 (MOLM-13 cells) of over 7.30.

For `CN1CCN(c2cccc(C(=O)Nc3n[nH]c4cc(OCCOCc5ccccc5)ccc34)c2)CC1` [Cpd. 29, N-[6-(2-Benzyloxy-ethoxy)-1H-indazol-3-yl]-3-(4-methyl-piperazin-1-yl)-benzamide hydrochloride], the pIC50 (MV-4-11 cells) was over 7.30 and the pIC50 (MOLM-13 cells) was over 7.30.

With `CN1CCN(c2ccc(C(=O)Nc3n[nH]c4cc(OCCOCc5ccc(F)cc5)ccc34)cc2)CC1` [Cpd. 32] the pIC50 (MV-4-11 cells) was over 7.30, the pIC50 [1] was 7.30 and the pIC50 (MOLM-13 cells) was over 7.30.

For `CN1CCN(c2ccc(C(=O)Nc3n[nH]c4cc(OCCOCc5ccc(C(F)(F)F)cc5)ccc34)cc2)CC1` [Cpd. 33, 4-(4-Methyl-piperazin-1-yl)-N-{6-[2-(4-trifluoromethyl-benzyloxy)-ethoxy]-1H-indazol-3-yl}-benzamide], the pIC50 (MV-4-11 cells) was over 7.30, the pIC50 [1] was 7.30 and the pIC50 (MOLM-13 cells) was over 7.30.

Work on `CN1CCN(c2ccc(C(=O)Nc3n[nH]c4cc(OCCOCc5cccc(C(F)(F)F)c5)ccc34)cc2)CC1` [Cpd. 34, 4-(4-Methyl-piperazin-1-yl)-N-{6-[2-(3-trifluoromethyl-benzyloxy)-ethoxy]-1H-indazol-3-yl}-benzamide] yielded a pIC50 (MV-4-11 cells) of over 7.30 and a pIC50 (MOLM-13 cells) of over 7.30.

Compound `CN1CCN(c2ccc(C(=O)Nc3n[nH]c4cc(OCCOCc5ccccc5)ccc34)c(F)c2)CC1` [Cpd. 38, N-[6-(2-Benzyloxy-ethoxy)-1H-indazol-3-yl]-2-fluoro-4-(4-methyl-piperazin-1-yl)-benzamide] has a pIC50 (MV-4-11 cells) of over 7.30 and a pIC50 (MOLM-13 cells) of over 7.30.

`CN1CCN(c2ccc(C(=O)Nc3n[nH]c4cc(OC/C=C/c5ccccc5)ccc34)cc2)CC1` [Cpd. 39, 4-(4-Methyl-piperazin-1-yl)-N-[6-((E)-3-phenyl-allyloxy)-1H-indazol-3-yl]-benzamide] gave a pIC50 (MV-4-11 cells) of 7.30 and a pIC50 (MOLM-13 cells) of 7.09.

`COc1ccc(COCCOc2ccc3c(NC(=O)c4ccc(N5CCN(C)CC5)cc4)n[nH]c3c2)cc1` [Cpd. 40, N-{6-[2-(4-Methoxy-benzyloxy)-ethoxy]-1H-indazol-3-yl}-4-(4-methyl-piperazin-1-yl)-benzamide] gave a pIC50 (MV-4-11 cells) of over 7.30 and a pIC50 (MOLM-13 cells) of over 7.30.

For `CN1CCN(c2ccc(C(=O)Nc3n[nH]c4cc(OCCOCc5ccccc5)ccc34)c(N3CCN(C)CC3)c2)CC1` [Cpd. 43, N-[6-(2-Benzyloxy-ethoxy)-1H-indazol-3-yl]-2,4-bis-(4-methyl-piperazin-1-yl)-benzamide], the pIC50 (MV-4-11 cells) was 6.93 and the pIC50 (MOLM-13 cells) was 6.62.
